# Test results: patent US20120184747A1, “ANILINE COMPOUND” (UBE INDUSTRIES, LTD., priority 2009, published 2012)
# Structures can show the parent of a compound that is named as a salt. Where two headings read alike, the source gives them in different places.
# Assays:
# [1] = test system: isolated guinea pig trachea; assay: Isolated guinea pig trachea relaxation test; conditions: Cavia porcellus, read-out: Contraction-inhibiting rate (%)
# Description: The tracheas were isolated from guinea pigs (Hartley, male, age 7 to 9 weeks, supplier: Nippon SLC) followed by cutting as rings containing cartilage. The trachea specimens were suspended in Krebs solution containing 3 μM indomethacin while applying a load of 1.0 g, and changes in tension were measured through an FD pickup (TB-611T, Nippon Kohden). […] After causing the trachea specimen to contract by electrical field stimulation (SEN-3401, Nippon Kohden) and the contractive reaction being stable, a test compound dissolved in dimethylsulfoxide was added to cause the trachea specimen to relax. The inhibiting rate to the contractive reaction before adding the compound was calculated.
# [2] = target: T1, human EP2 receptor (Homo sapiens, UniProt P43116); assay: Measurement of EP2 receptor binding action; conditions: membrane fraction of HEK293 cells expressing human EP2 receptor; [3H]prostaglandin 10 nM; Ki calculated from IC50
# T1 construct: host or cells: HEK293 cells
# Description: Measurement of EP2 receptor binding action was carried out in compliance with the method of Abramovitz et al. (Biochimica et Biophysica Acta, 1483, 285 (2000)). A test compound dissolved in dimethylsulfoxide and [^3H]prostaglandin […] (NET-428, PerkinElmer) (final concentration: 10 nM) were added to a buffer solution (10 mM MES-KOH (pH 6.0), 10 mM MgCl2, 1 mM EDTA) in which was suspended 10 μg of a membrane fraction of HEK293 cells expressing human EP2 receptor (ES-562-M, available from Euroscreen) followed by incubating at 30° C. for 60 minutes. The membrane fraction was recovered on glass fiber filter paper (GF/B, Whatmann) using a cell harvester (M30R, Brandel), and after washing with buffer solution (10 mM MES-KOH (pH 6.0), 10 mM MgCl2), radioactivity was measured with a liquid scintillation analyzer (2000CA, Packard).
# Ki=IC50/(1+([^3H]prostaglandin E2 concentration/Kd))
# The dissociation constant (Kd value) was calculated by Scatchard analysis.
# [3] = target: T1, human EP2 receptor; assay: Measurement of EP2 agonist activity (cAMP in HEK293 cells expressing human EP2 receptor); type: cell-based; conditions: cAMP increase in HEK293 cells expressing human EP2 receptor, 30 minutes
# Description: Measurement of EP2 agonist activity was carried out in compliance with the method of Wilson et al. (European Journal of Pharmacology, 501, 49 (2004)). HEK293 cells expressing human EP2 receptor (ES-562-C, available from Euroscreen) were cultured in MEM medium containing 10% FBS and seeded at 2×10^4 cells per well of a 96-well plate. On the following day, the medium was replaced with serumfree MEM medium containing 3-isobutyl-1-methylxanthine (final concentration: 500 μM) and after culturing for 30 minutes, a test compound dissolved in dimethylsulfoxide was added followed by allowing to stand undisturbed in a carbon dioxide incubator. After 30 minutes, the amount of cAMP in the cells was measured with a cAMP Biotrak EIA System kit (available from GE Healthcare Biosciences). The concentration of test compound required to increase the amount of cAMP to 50% of the maximum increase (EC50 value) was calculated by non-linear regression of the test compound concentration and amount of cAMP using EXSAS.
# T1 sequence (P43116 whole entry): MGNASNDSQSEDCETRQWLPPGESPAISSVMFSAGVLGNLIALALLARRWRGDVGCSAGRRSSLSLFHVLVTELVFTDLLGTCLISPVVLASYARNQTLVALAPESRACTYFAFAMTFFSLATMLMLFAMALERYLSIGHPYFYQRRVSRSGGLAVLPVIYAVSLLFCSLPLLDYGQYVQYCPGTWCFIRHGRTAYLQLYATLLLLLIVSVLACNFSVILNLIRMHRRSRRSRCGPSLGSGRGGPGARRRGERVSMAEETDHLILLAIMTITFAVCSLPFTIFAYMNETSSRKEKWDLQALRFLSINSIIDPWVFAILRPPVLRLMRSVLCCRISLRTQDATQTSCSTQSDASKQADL
SMILES,inhibition at 10 µM [1] [%],also measured
"CC[N+](C)(CC)c1ccc(CN(Cc2cccc(NCC(=O)O)n2)S(=O)(=O)c2cccnc2)cc1 [Example 4, [6-({4-[Diethyl(methyl)ammonio]benzyl}(pyridin-3-ylsulfonyl)aminomethyl)pyridin-2-ylamino]acetic acid hydrochloride]",,"inhibition at 10 µM ([1]; test compound concentration 10 μM, contraction by electrical field stimulation): 81%"
"CNc1ccc(CN(Cc2cccc(NCC(=O)O)n2)S(=O)(=O)c2cccnc2)cc1 [Example 1, {6-[(4-Methylaminobenzyl) (pyridin-3-ylsulfonyl)aminomethyl]pyridin-2-ylamino}-acetic acid]",95,
"CN(Cc1ccccc1)c1ccc(CN(Cc2cccc(NCC(=O)O)n2)S(=O)(=O)c2cccnc2)cc1 [Example 6, [6-({4-[Benzyl(methyl)amino]benzyl}(pyridin-3-ylsulfonyl)aminomethyl)pyridin-2-ylamino]acetic acid]",94,
"CCCS(=O)(=O)N(C)c1ccc(CN(Cc2cccc(NCC(=O)O)n2)S(=O)(=O)c2cccnc2)cc1 [Example 2, [6-({4-[Methyl(propylsulfonyl)amino]benzyl}(pyridin-3-ylsulfonyl)aminomethyl)pyridin-2-ylamino]acetic acid]",86,
"CCCC(=O)N(C)c1ccc(CN(Cc2cccc(NCC(=O)O)n2)S(=O)(=O)c2cccnc2)cc1 [Example 5, [6-({4-[Butyryl(methyl)amino]benzyl}(pyridin-3-ylsulfonyl)aminomethyl)pyridin-2-ylamino]acetic acid]",92,
"CCCCN(C)c1ccc(CN(Cc2cccc(NCC(=O)O)n2)S(=O)(=O)c2ccccn2)cc1 [Example 7, [6-({4-[Butyl(methyl)amino]benzyl}(pyridin-2-ylsulfonyl)aminomethyl)pyridin-2-ylamino]acetic acid]",,inhibition at 0.03 µM [1]: 84%; Ki [2]: 10 nM; EC50 [3]: 1.2 nM
